Experimental data taken from ChEMBL document CHEMBL3885861, “Open TG-GATES”.

Species: Rattus norvegicus
Test: Open TG-GATES - Regimen: Daily Repeat
Format: toxicity, organism-based, Sprague-Dawley
Parameters: regimen Daily Repeat, gender Male, age 6 weeks
Details: in vivo, po, 150 mg/kg, route gavage, dose level Middle; for APTT / Bas / Eos / Fbg / Hb / Ht / Lym / MCH / MCHC / MCV / Mono / Neu / PT / Plat / RBC / Ret / WBC: tissue Blood; for KIDNEY_L / KIDNEY_R / KIDNEY_TOTAL: tissue Kidney; for LIVER: tissue Liver; for A/G / ALP / ALT / AST / BUN / CRE / Ca / Cl / DBIL / GLC / IP / K / LDH / Na / PL / RALB / TBIL / TC / TG / TP / gamma-GTP: tissue Plasma

CC(=O)Oc1cc(C(C)C)c(OCCN(C)C)cc1C [MOXISYLYTE]
TERMINAL_BW (72 h, time 3 day): 223.4 g
APTT (72 h, time 3 day): 20.6 s
Bas (72 h, time 3 day): 0%
Eos (72 h, time 3 day): 1%
Fbg (72 h, time 3 day): 313 mg/dL
Hb (72 h, time 3 day): 14.1 g/dL
Ht (72 h, time 3 day): 40.5%
Lym (72 h, time 3 day): 78%
MCH (72 h, time 3 day): 21.3 pg
MCHC (72 h, time 3 day): 34.8%
MCV (72 h, time 3 day): 61.2 fL
Mono (72 h, time 3 day): 2.4%
Neu (72 h, time 3 day): 17.6%
PT (72 h, time 3 day): 16.2 s
Plat (72 h, time 3 day): 113.1 x10_4/uL
RBC (72 h, time 3 day): 663.6 x10_4/ul
Ret (72 h, time 3 day): 6.3%
WBC (72 h, time 3 day): 91.7 x10_2/uL
KIDNEY_L (72 h, time 3 day): 1 g
KIDNEY_R (72 h, time 3 day): 1 g
KIDNEY_TOTAL (72 h, time 3 day): 2 g
LIVER (72 h, time 3 day): 9.7 g
A/G (72 h, time 3 day): 1.3
ALP (72 h, time 3 day): 1491.8 IU/L
ALT (72 h, time 3 day): 42.6 IU/L
AST (72 h, time 3 day): 75.6 IU/L
BUN (72 h, time 3 day): 16.4 mg/dL
CRE (72 h, time 3 day): 0.1 mg/dL
Ca (72 h, time 3 day): 10.8 mg/dL
Cl (72 h, time 3 day): 106.6 meq/L
DBIL (72 h, time 3 day): 0.01 mg/dL
GLC (72 h, time 3 day): 176.8 mg/dL
IP (72 h, time 3 day): 7.4 mg/dL
K (72 h, time 3 day): 4.2 meq/L
LDH (72 h, time 3 day): 242.8 IU/L
Na (72 h, time 3 day): 142.6 meq/L
PL (72 h, time 3 day): 159.8 mg/dL
RALB (72 h, time 3 day): 3.3 g/dL
TBIL (72 h, time 3 day): 0.008 mg/dL
TC (72 h, time 3 day): 74.4 mg/dL
TG (72 h, time 3 day): 140.6 mg/dL
TP (72 h, time 3 day): 5.8 g/dL
gamma-GTP (72 h, time 3 day): 1 IU/L
TERMINAL_BW ([…], time 7 day): 265.4 g
TERMINAL_BW ([…], time 14 day): 312.1 g
TERMINAL_BW ([…], time 28 day): 361.5 g
APTT ([…], time 7 day): 22.3 s
Bas ([…], time 7 day): 0%
Eos ([…], time 7 day): 0.6%
Fbg ([…], time 7 day): 318.2 mg/dL
Hb ([…], time 7 day): 13.4 g/dL
Ht ([…], time 7 day): 38.8%
Lym ([…], time 7 day): 81.4%
MCH ([…], time 7 day): 21.1 pg
MCHC ([…], time 7 day): 34.6%
MCV ([…], time 7 day): 61.2 fL
Mono ([…], time 7 day): 2.2%
Neu ([…], time 7 day): 15.2%
PT ([…], time 7 day): 15.3 s
Plat ([…], time 7 day): 113.7 x10_4/uL
RBC ([…], time 7 day): 633.2 x10_4/ul
Ret ([…], time 7 day): 6.1%
WBC ([…], time 7 day): 110.8 x10_2/uL
APTT ([…], time 14 day): 21.8 s
Bas ([…], time 14 day): 0%
Eos ([…], time 14 day): 1.2%
Fbg ([…], time 14 day): 310.8 mg/dL
Hb ([…], time 14 day): 14.5 g/dL
Ht ([…], time 14 day): 40%
Lym ([…], time 14 day): 76.4%
MCH ([…], time 14 day): 20.9 pg
MCHC ([…], time 14 day): 36.3%
MCV ([…], time 14 day): 57.8 fL
Mono ([…], time 14 day): 2.6%
Neu ([…], time 14 day): 19%
PT ([…], time 14 day): 15.9 s
Plat ([…], time 14 day): 117.3 x10_4/uL
RBC ([…], time 14 day): 692.8 x10_4/ul
Ret ([…], time 14 day): 4.9%
WBC ([…], time 14 day): 125.2 x10_2/uL
APTT ([…], time 28 day): 22.5 s
Bas ([…], time 28 day): 0%
Eos ([…], time 28 day): 1%
Fbg ([…], time 28 day): 323.6 mg/dL
Hb ([…], time 28 day): 15.1 g/dL
Ht ([…], time 28 day): 42.5%
Lym ([…], time 28 day): 81.6%
MCH ([…], time 28 day): 19 pg
MCHC ([…], time 28 day): 35.4%
MCV ([…], time 28 day): 53.5 fL
Mono ([…], time 28 day): 2.4%
Neu ([…], time 28 day): 14.2%
PT ([…], time 28 day): 15.6 s
Plat ([…], time 28 day): 92.2 x10_4/uL
RBC ([…], time 28 day): 793.6 x10_4/ul
Ret ([…], time 28 day): 2.7%
WBC ([…], time 28 day): 166.9 x10_2/uL
KIDNEY_L ([…], time 7 day): 1.1 g
KIDNEY_R ([…], time 7 day): 1.2 g
KIDNEY_TOTAL ([…], time 7 day): 2.3 g
KIDNEY_L ([…], time 14 day): 1.2 g
KIDNEY_R ([…], time 14 day): 1.3 g
KIDNEY_TOTAL ([…], time 14 day): 2.6 g
KIDNEY_L ([…], time 28 day): 1.4 g
KIDNEY_R ([…], time 28 day): 1.4 g
KIDNEY_TOTAL ([…], time 28 day): 2.8 g
LIVER ([…], time 7 day): 12.3 g
LIVER ([…], time 14 day): 13.7 g
LIVER ([…], time 28 day): 14.2 g
A/G ([…], time 7 day): 1.3
ALP ([…], time 7 day): 1576.8 IU/L
ALT ([…], time 7 day): 43.4 IU/L
AST ([…], time 7 day): 77.8 IU/L
BUN ([…], time 7 day): 17.2 mg/dL
CRE ([…], time 7 day): 0.2 mg/dL
Ca ([…], time 7 day): 10.6 mg/dL
Cl ([…], time 7 day): 106 meq/L
DBIL ([…], time 7 day): 0 mg/dL
GLC ([…], time 7 day): 192.2 mg/dL
IP ([…], time 7 day): 7.2 mg/dL
K ([…], time 7 day): 4.3 meq/L
LDH ([…], time 7 day): 192.2 IU/L
Na ([…], time 7 day): 141.4 meq/L
PL ([…], time 7 day): 155.4 mg/dL
RALB ([…], time 7 day): 3.1 g/dL
TBIL ([…], time 7 day): 0.006 mg/dL
TC ([…], time 7 day): 75.6 mg/dL
TG ([…], time 7 day): 147.6 mg/dL
TP ([…], time 7 day): 5.5 g/dL
gamma-GTP ([…], time 7 day): 1.4 IU/L
A/G ([…], time 14 day): 1.2
ALP ([…], time 14 day): 1330.2 IU/L
ALT ([…], time 14 day): 44.6 IU/L
AST ([…], time 14 day): 79.2 IU/L
BUN ([…], time 14 day): 18.8 mg/dL
CRE ([…], time 14 day): 0.2 mg/dL
Ca ([…], time 14 day): 10.6 mg/dL
Cl ([…], time 14 day): 107.4 meq/L
DBIL ([…], time 14 day): 0 mg/dL
GLC ([…], time 14 day): 173.2 mg/dL
IP ([…], time 14 day): 6 mg/dL
K ([…], time 14 day): 4.2 meq/L
LDH ([…], time 14 day): 181.2 IU/L
Na ([…], time 14 day): 141 meq/L
PL ([…], time 14 day): 146.2 mg/dL
RALB ([…], time 14 day): 3.1 g/dL
TBIL ([…], time 14 day): 0 mg/dL
TC ([…], time 14 day): 76.2 mg/dL
TG ([…], time 14 day): 151.4 mg/dL
TP ([…], time 14 day): 5.7 g/dL
gamma-GTP ([…], time 14 day): 1 IU/L
A/G ([…], time 28 day): 1
ALP ([…], time 28 day): 1105.4 IU/L
ALT ([…], time 28 day): 41 IU/L
AST ([…], time 28 day): 70.4 IU/L
BUN ([…], time 28 day): 17.4 mg/dL
CRE ([…], time 28 day): 0.2 mg/dL
Ca ([…], time 28 day): 10.4 mg/dL
Cl ([…], time 28 day): 107 meq/L
DBIL ([…], time 28 day): 0.002 mg/dL
GLC ([…], time 28 day): 188.2 mg/dL
IP ([…], time 28 day): 6.1 mg/dL
K ([…], time 28 day): 4.1 meq/L
LDH ([…], time 28 day): 137 IU/L
Na ([…], time 28 day): 141.8 meq/L
PL ([…], time 28 day): 143 mg/dL
RALB ([…], time 28 day): 3.1 g/dL
TBIL ([…], time 28 day): 0.006 mg/dL
TC ([…], time 28 day): 71.4 mg/dL
TG ([…], time 28 day): 150.4 mg/dL
TP ([…], time 28 day): 6 g/dL
gamma-GTP ([…], time 28 day): 2.2 IU/L
